Paper PMC12147183, “Lacritin cleavage-potentiated targeting of iron - respiratory reciprocity promotes bacterial death” (The Journal of Biological Chemistry, 2025)
pIC50: −log10 of the molar value. Peptide text beside a SMILES is read from it.

How the values were obtained:
Fe^2+ uptake by PA14 = format: cell-based, Pseudomonas aeruginosa
Protocol: Iron depletion was induced in PA14 cells (5 × 10^9 cfu in 10 ml 10 mM Na2HPO4, 1.8 mM KH2PO4, 2.7 mM KCl, 137 mM NaCl (pH 7.2) by treatment with the chelator 1 mM 2,2′-bipyridyl at room temperature for 1 h. After washing twice with 0.9% NaCl, cells were suspended in 1 ml of 1 mM Na2HPO4, 0.18 mM KH2PO4, 0.27 mM KCl, 13.7 mM NaCl for treatment without or with 1, 10, 25, 50 or 100 μM of N-104 (or negative control N-80/C-25 or C-95) for 45 min at 35 °C, incubated at the same temperature for 15 min with 100 μM FeSO4 and 13 mM ascorbic acid, washed twice with 1 mM Na2HPO4, 0.18 mM KH2PO4, 0.27 mM KCl, and 13.7 mM NaCl, and pelleted at 12,000g. The ferrozine assay ([54]) was subsequently employed. Briefly, cells in pellets were lysed with 20 μl of 50 mM NaOH, partially neutralized with 20 μl of 10 mM HCl, subjected to iron release with 20 μl of acidified 0.29 M KMnO4 for 30 min at 80 °C, cooled to room temperature, incubated with 7 μl of 30 mM ferrozine, 1.1 μl of 180 mM neocuproine, 15 μl of 5 M ammonium acetate and 15 μl of 1 M ascorbic acid for 30 min at room temperature and then centrifuged at 21,000g for 10 min. Cellular iron uptake could then be assessed from the supernatant OD565. Single-molecule transport per cell was estimated using a standard curve.

His-tagged FeoB = His-tagged FeoB binding to peptide columns; parameters: species or system P. aeruginosa PAO1; conditions: step gradient 0.3, 0.5, 1.0 M KCl, 0.05% dodecyl-β-D-maltopyranoside, 4 °C, anti-His Western blot, n = 3
Protocol: (§1) We used the pFeoB plasmid ([6]) with feoB insert from P. aeruginosa PAO1 in pET41-a(+) with a C-terminal 8-His tag and kanamycin-resistant cassette, and E. coli EcCD00397460 plasmid (DNASU Plasmid Repository, Tempe Arizona) with potH insert in PCDF Bravo with C-terminal 10-His tag and streptomycin-resistant cassette. Plasmids of each were generated using standard procedures. His-tagged FeoB or PotH proteins in the supernatant were captured on Ni-Sepharose for 4 h with end-over-end rotation at 4 °C, washed with 10 mM HEPES potassium salt, 10% glycerol, 0.5 M NaCl, 10 mM MgSO4, 10 mM imidazole, and 0.05% dodecyl-β-D-maltopyranoside and eluted with the same wash buffer but containing 0.2 M NaCl and 0.5 M imidazole. Eluted FeoB and PotH were concentrated into 10 mM HEPES potassium salt, 10% glycerol, 10 mM MgSO4, 0.05% dodecyl-β-D-maltopyranoside and 0.15 M NaCl respectively on Amicon Ultra-0.5 Centrifugal UFC505024, UFC503024 and UFC900596 filter units.
(§2) N-104 and C-95 columns (1 ml each) equilibrated in 10 mM HEPES potassium salt, 10% glycerol, 10 mM MgSO4, 0.05% dodecyl-β-D-maltopyranoside, and 0.15 M NaCl were individually mixed at 4 °C overnight with purified FeoB and PotH. […]

His-tagged PotH = molecular target: T1, His-tagged PotH (Escherichia coli, UniProt P31135); experiment: His-tagged PotH binding to peptide columns; parameters: species or system E. coli; conditions: step gradient 0.3, 0.5, 1.0 M KCl, 0.05% dodecyl-β-D-maltopyranoside, 4 °C, anti-His Western blot, n = 3
T1 construct: host or cells: legend says PA14
T1 sequence (P31135 whole entry): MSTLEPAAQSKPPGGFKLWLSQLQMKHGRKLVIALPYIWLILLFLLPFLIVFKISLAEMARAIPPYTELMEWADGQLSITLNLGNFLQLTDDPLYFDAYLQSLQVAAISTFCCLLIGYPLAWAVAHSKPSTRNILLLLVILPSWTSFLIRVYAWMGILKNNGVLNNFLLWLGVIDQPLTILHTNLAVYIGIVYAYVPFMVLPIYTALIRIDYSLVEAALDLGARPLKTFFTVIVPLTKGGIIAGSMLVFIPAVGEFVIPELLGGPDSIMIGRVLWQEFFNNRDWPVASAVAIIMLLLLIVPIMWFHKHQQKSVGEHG
Protocol: as §1, §2

[1] = test system: ^14C-spermidine uptake by PA14; format: cell-based, Pseudomonas aeruginosa
Protocol: 100 μl aliquots (0.8 × 10^8 cfu) of PA14 cell cultures in 1 mM Na2HPO4, 0.18 mM KH2PO4, 0.27 mM KCl, 13.7 mM NaCl without or with 1, 10, 25, 50 or 100 μM N-104 (or N-80/C-25 or C-95) for 45 min at 35 °C were incubated with 1 μl of 10 mM [1,4-^14C]putrescine (0.1 mCi/ml; ARC-0245–250, American Radiolabeled Chemicals) or [1,4-^14C]spermidine (0.1 mCi/ml; ARC-3138–50, American Radiolabeled Chemicals) for 15 min at 35 °C. Cell pellets were washed four times with 100 μl of 10 mM Na2HPO4, 1.8 mM KH2PO4, 2.7 mM KCl, 137 mM NaCl (pH 7.2) and then transferred to 4 ml of scintillation fluid (1200.437, PerkinElmer OptiPhase HiSafe 3) for analysis in a Beckman Coulter LS6500. Also assessed was radioactivity from the last wash. Single-molecule transportation per cell was estimated using standard curves for each radiolabeled polyamine.

| SMILES | effect on exogenous Fe^2+ uptake (Fe^2+ uptake by PA14; 1 to 100 μM peptide) | KCl elution of His-FeoB from immobilized peptide (His-tagged FeoB) | KCl elution of His-PotH from immobilized peptide (His-tagged PotH) | effect on ^14C-spermidine uptake ([1]; 1 to 100 μM peptide) | pIC50 (Fe^2+ uptake by PA14; 1 h) | pIC50 [1] |
| --- | --- | --- | --- | --- | --- | --- |
| C[C@H](NC(=O)CNC(=O)[C@@H](NC(=O)[C@H](CO)NC(=O)[C@H](CC(=O)O)NC(=O)[C@H](CO)NC(=O)[C@H](CO)NC(=O)[C@H](C)NC(=O)[C@H](CC(=O)O)NC(=O)[C@@H](N)CCC(=O)O)[C@@H](C)O)C(=O)N[C@@H](CC(=O)O)C(=O)N1CCC[C@H]1C(=O)N[C@@H](C)C(=O)N[C@@H](CCC(N)=O)C(=O)N[C@@H](CCC(=O)O)C(=O)N[C@@H](C)C(=O)NCC(=O)N[C@H](C(=O)N[C@@H](CO)C(=O)N[C@@H](CCCCN)C(=O)N1CCC[C@H]1C(=O)N[C@@H](CC(N)=O)C(=O)N[C@@H](CCC(=O)O)C(=O)N[C@@H](CCC(=O)O)C(N)=O)[C@@H](C)O [C-95, reference compound] (H-EDASSDSTGADPAQEAGTSKPNEE-NH2) | had no effect | lacked | lacked | had no effect |  |  |
| CC(=O)N[C@@H](C)C(=O)N[C@@H](CCC(N)=O)C(=O)N[C@@H](CCCCN)C(=O)N[C@@H](CC(C)C)C(=O)N[C@@H](CC(C)C)C(=O)N[C@@H](CCCCN)C(=O)N[C@@H](CCCCN)C(=O)N[C@@H](Cc1ccccc1)C(=O)N[C@@H](CO)C(=O)N[C@@H](CC(C)C)C(=O)N[C@@H](CC(C)C)C(=O)N[C@@H](CCCCN)C(=O)N1CCC[C@H]1C(=O)N[C@@H](Cc1c[nH]c2ccccc12)C(=O)N[C@@H](C)C(=O)O [N-104] (Ac-AQKLLKKFSLLKPWA-OH) |  | eluted with 0.5 and 1 M but not 0.3 M KCl | eluted with 0.5 and 1 M but not 0.3 M KCl |  | 5.00 | 5.00 |
